Where a name gives a salt, the structure may show the parent alone. Read-outs that look alike come from different tables or passages of the source.
What was measured:
[1] = molecular target: T1, SARS-CoV-2 PLpro (nsp3 1564–1878) (Severe acute respiratory syndrome coronavirus 2, UniProt P0DTD1); experiment: biochemical; parameters: FRET-quenched peptide (Pro3) cleavage by PLpro, 10 min pre-incubation, slope over 20 min, normalised to no-compound control; conditions: low concentration screen, read-out: % of control remaining
[2] = molecular target: T1, SARS-CoV-2 PLpro (nsp3 1564–1878); experiment: biochemical; parameters: FRET-quenched peptide (Pro3) cleavage by PLpro, 10 min pre-incubation, slope over 20 min, normalised to no-compound control; conditions: high concentration screen, read-out: % of control remaining

N[C@@H](CCCC(=O)O)C(=O)O [L-2-aminoadipic acid]
remaining activity at 1.25 µM ([1]; Well no.=52): 97.1% | remaining activity at 3.75 µM ([2]; Well no.=52): 97.4%

CCCn1cnc2c1c(=O)n(CCCCC(C)=O)c(=O)n2C [Propentofylline]
remaining activity at 1.25 µM ([1]; Well no.=1403): 95.1% | remaining activity at 3.75 µM ([2]; Well no.=1403): 94%

CC(C)(C)c1cc(C(C)(C)C)c(NC(=O)c2c[nH]c3ccccc3c2=O)cc1O [Ivacaftor (VX-770)]
remaining activity at 1.25 µM ([1]; Well no.=5055): 105% | remaining activity at 3.75 µM ([2]; Well no.=5055): 102%

N#C[C@@H]1C[C@@H]2C[C@@H]2N1C(=O)[C@@H](N)C12CC3CC(CC(O)(C3)C1)C2 [Saxagliptin hydrate]
remaining activity at 1.25 µM ([1]; Well no.=8254): 104% | remaining activity at 3.75 µM ([2]; Well no.=8254): 102%

Cn1nnc2c(C(N)=O)ncn2c1=O [Temozolomide]
remaining activity at 1.25 µM ([1]; Well no.=1952): 95% | remaining activity at 3.75 µM ([2]; Well no.=1952): 99.1%

NC[C@H](O)c1ccc(O)c(O)c1 [Norepinephrine (bitartrate monohydrate)]
remaining activity at 1.25 µM ([1]; Well no.=6517): 101% | remaining activity at 3.75 µM ([2]; Well no.=6517): 98.7%

Cc1cc(NC(=O)Nc2ccc(N(C)C)cc2)c2cc(F)cc(F)c2n1 [SB-408124]
remaining activity at 1.25 µM ([1]; Well no.=4955): 90.2% | remaining activity at 1.25 µM ([1]; Well no.=8481): 104% | remaining activity at 3.75 µM ([2]; Well no.=4955): 94.9% | remaining activity at 3.75 µM ([2]; Well no.=8481): 102%

O=[N+]([O-])c1cc(S(=O)(=O)Nc2ccc(O)c3ccccc23)ccc1Cl [4-chloro-N-(4-hydroxy-1-naphthyl)-3-nitrobenzenesulfonamide]
remaining activity at 1.25 µM ([1]; Well no.=5816): 96.1% | remaining activity at 3.75 µM ([2]; Well no.=5816): 97.4%

NCCS(=O)(=O)O [Taurine]
remaining activity at 1.25 µM ([1]; Well no.=1233): 102% | remaining activity at 1.25 µM ([1]; Well no.=6299): 98.3% | remaining activity at 3.75 µM ([2]; Well no.=1233): 104% | remaining activity at 3.75 µM ([2]; Well no.=6299): 96.7%

COC(=O)CCc1ccc(OCC(O)CNC(C)C)cc1 (stereo not drawn) [Esmolol (hydrochloride)]
remaining activity at 1.25 µM ([1]; Well no.=6651): 105% | remaining activity at 3.75 µM ([2]; Well no.=6651): 107%

C[C@@H](CN1CCC(Cc2ccccc2)CC1)[C@@H](O)c1ccc(O)cc1 [Ro 25-6981 hydrochloride]
remaining activity at 1.25 µM ([1]; Well no.=1350): 99.4% | remaining activity at 3.75 µM ([2]; Well no.=1350): 102%

O=C1c2cccc(O)c2C(=O)c2c(O)cc(CO)cc21 [Aloe-emodine]
remaining activity at 1.25 µM ([1]; Well no.=3156): 105% | remaining activity at 3.75 µM ([2]; Well no.=3156): 102%

COc1cc(CCC(=O)CC(=O)CCc2ccc(O)c(OC)c2)ccc1O [Tetrahydrocurcumin]
remaining activity at 1.25 µM ([1]; Well no.=6199): 104% | remaining activity at 3.75 µM ([2]; Well no.=6199): 107%

N[C@@H](C(=O)N[C@@H]1C(=O)N2C(C(=O)O)=C(Cl)CS[C@H]12)c1ccccc1 [Cefaclor]
remaining activity at 1.25 µM ([1]; Well no.=88): 99.7% | remaining activity at 3.75 µM ([2]; Well no.=88): 101%

C[C@@]12C(=O)OC(=O)[C@]1(C)[C@H]1CC[C@@H]2O1 [Cantharidin]
remaining activity at 1.25 µM ([1]; Well no.=42): 94.6% | remaining activity at 1.25 µM ([1]; Well no.=3129): 107% | remaining activity at 3.75 µM ([2]; Well no.=42): 97.9% | remaining activity at 3.75 µM ([2]; Well no.=3129): 108%

CN(C)CCOC(C)(c1ccccc1)c1ccccn1 (stereo not drawn) [Doxylamine succinate]
remaining activity at 1.25 µM ([1]; Well no.=497): 102% | remaining activity at 3.75 µM ([2]; Well no.=497): 104%

O=C(O)C[C@H](O)C[C@H](O)/C=C/c1c(C2CC2)nc2ccccc2c1-c1ccc(F)cc1 [Pitavastatin Calcium]
remaining activity at 1.25 µM ([1]; Well no.=8334): 97.4% | remaining activity at 3.75 µM ([2]; Well no.=8334): 95.7%

OC[C@H]1O[C@@H](n2cnc3c(NC4CCCC4)ncnc32)[C@H](O)[C@@H]1O [N6-Cyclopentyladenosine]
remaining activity at 1.25 µM ([1]; Well no.=330): 85.8% | remaining activity at 3.75 µM ([2]; Well no.=330): 88.2%

COCC1(CO)C(=O)C2CCN1CC2 (stereo not drawn) [PRIMA-1Met]
remaining activity at 1.25 µM ([1]; Well no.=6212): 101% | remaining activity at 3.75 µM ([2]; Well no.=6212): 99.5%

c1ccc2nc(N3CCNCC3)ccc2c1 [Quipazine dimaleate]
remaining activity at 1.25 µM ([1]; Well no.=1411): 99.5% | remaining activity at 3.75 µM ([2]; Well no.=1411): 101%

CCOc1ccc(-n2c([C@@H](C)N(Cc3cccnc3)C(=O)Cc3ccc(F)c(C(F)(F)F)c3)nc3ncccc3c2=O)cc1 [NBI-74330]
remaining activity at 1.25 µM ([1]; Well no.=8611): 108% | remaining activity at 3.75 µM ([2]; Well no.=8611): 97.8%

COC(=O)[C@H](Cc1ccc([N+](=O)[O-])cc1)NC(=O)c1cccc2ccccc12 [SB 328437]
remaining activity at 1.25 µM ([1]; Well no.=5812): 94.2% | remaining activity at 3.75 µM ([2]; Well no.=5812): 93.4%

COc1ccc([C@@H]2OC[C@@H]3[C@H]2CO[C@H]3c2ccc(OC)c(OC)c2)cc1OC [Eudesmine]
remaining activity at 1.25 µM ([1]; Well no.=3117): 95.1% | remaining activity at 3.75 µM ([2]; Well no.=3117): 88.7%

NS(=O)(=O)c1ccc(NC(=O)Nc2ccc(F)cc2)cc1 [U-104]
remaining activity at 1.25 µM ([1]; Well no.=8246): 98% | remaining activity at 1.25 µM ([1]; Well no.=8566): 103% | remaining activity at 3.75 µM ([2]; Well no.=8246): 93.1% | remaining activity at 3.75 µM ([2]; Well no.=8566): 103%

CNC[C@H](O)c1ccc(O)c(O)c1 [(-)-Epinephrine bitartrate]
remaining activity at 1.25 µM ([1]; Well no.=509): 102% | remaining activity at 3.75 µM ([2]; Well no.=509): 99.3%

C[C@H](NC(=O)C(=O)Nc1ccccc1C(C)(C)C)C(=O)N[C@@H](CC(=O)O)C(=O)COc1c(F)c(F)cc(F)c1F [Emricasan]
remaining activity at 1.25 µM ([1]; Well no.=7118): 95.7% | remaining activity at 3.75 µM ([2]; Well no.=7118): 95.9%

NCCCC(N)(C(=O)O)C(F)F (stereo not drawn) [Eflornithine hydrochloride hydrate]
remaining activity at 1.25 µM ([1]; Well no.=8636): 104% | remaining activity at 3.75 µM ([2]; Well no.=8636): 95.7%

CCOC(=O)N[C@@H]1CC[C@@H]2[C@@H](C1)C[C@H]1C(=O)O[C@H](C)[C@H]1[C@H]2/C=C/c1ccc(-c2cccc(F)c2)cn1 [Vorapaxar]
remaining activity at 1.25 µM ([1]; Well no.=7567): 97.6% | remaining activity at 3.75 µM ([2]; Well no.=7567): 89.4%

O=c1onc2n1-c1cc(Br)ccc1OC2 [NS 2028]
remaining activity at 1.25 µM ([1]; Well no.=990): 99.8% | remaining activity at 3.75 µM ([2]; Well no.=990): 99.6%

O=C(CCCN1CCN(c2ccccn2)CC1)c1ccc(F)cc1 [Azaperone]
remaining activity at 1.25 µM ([1]; Well no.=2163): 100% | remaining activity at 1.25 µM ([1]; Well no.=6471): 102% | remaining activity at 3.75 µM ([2]; Well no.=2163): 103% | remaining activity at 3.75 µM ([2]; Well no.=6471): 101%

CCCCCCCCCCCCCCCC(=O)Nc1ccn([C@@H]2O[C@H](CO)[C@@H](O)[C@@H]2C#N)c(=O)n1 [Sapacitabine]
remaining activity at 1.25 µM ([1]; Well no.=7908): 98.8% | remaining activity at 3.75 µM ([2]; Well no.=7908): 102%

Cc1c(O)cccc1C(=O)N[C@@H](CSc1ccccc1)[C@H](O)CN1C[C@H]2CCCC[C@H]2C[C@H]1C(=O)NC(C)(C)C [Nelfinavir mesylate]
remaining activity at 1.25 µM ([1]; Well no.=2201): 95.1% | remaining activity at 1.25 µM ([1]; Well no.=8156): 102% | remaining activity at 3.75 µM ([2]; Well no.=2201): 97.3% | remaining activity at 3.75 µM ([2]; Well no.=8156): 103%

CCN(CC)CCNC(=O)c1ccc(N)cc1 [Procainamide hydrochloride]
remaining activity at 1.25 µM ([1]; Well no.=1307): 96.8% | remaining activity at 3.75 µM ([2]; Well no.=1307): 98.9%
